Results published in patent publication US11298367B2, “Prodrugs of substituted triazole derivatives and uses thereof” (Bayer Aktiengesellschaft, priority 2017, dated 2022).
pIC50: −log10 of the molar value. Like-named read-outs stand apart in the source and are kept apart here.

Key:
[1] = biological target: T1, human V2 receptor (Homo sapiens, UniProt P30518); assay: Cellular in vitro assay for vasopressin receptor activity (V2, CRE-luciferase); type: cell-based; conditions: CHO cell line with human V2 receptor, [Arg8]-vasopressin at EC50; values are for the prodrug as such; read-out: IC50 hV2
T1 construct: expressed in transfected cells; host or cells: CHO K1 cells expressing firefly luciferase under a CRE-responsive promoter
How it was run: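 CHO K1 cells stably expressing human V2 receptor with CRE-driven firefly luciferase; compounds added together with [Arg8]-vasopressin at EC50 concentration, 3 h at 37 °C. Luminescence read after Triton lysis and luciferin addition; IC50 reflects antagonism of agonist-induced signal, measured on prodrug form stable under assay conditions.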

[2] = biological target: T2, vasopressin V2 receptor (Rattus norvegicus, UniProt Q00788); assay: Diuresis investigations in conscious rats kept in metabolism cages; type: in vivo; conditions: Wistar rats, i.v., solvent control = 100%
T2 construct: from tissue; host or cells: whole animal (conscious Wistar rats; renal V2 receptors)
Protocol: B-8. In Vivo Assay for Detecting Vasopressin V2 Receptor-Meidated Effects: Diuresis Investigations in Conscious Rats Kept in Metabolism Cages
Wistar rats (400-500 g body weight) are kept with free access to feed (Altromin) and drinking water. During the experiment, the animals are kept with free access to drinking water for 7 hours individually in metabolism cages suitable for rats of this weight class (Tecniplast Deutschland GmbH, D-82383 Hohenpeißenberg). At the beginning of the experiment, the animals are administered the test substance in a volume of 1 ml/kg body weight of a suitable solvent (2-Hydroxylpropyl-beta-cyclodextrin) by intravenous application. Control animals only receive solvent. Controls and substance tests are carried out in parallel on the same day. Control groups and substance-dose groups each consist of 6 to 8 animals. During the experiment, the urine excreted by the animals is collected continuously in a receiver at the base of the cage. The volume of urine is determined separately for each animal. Before the beginning of the experiment, the body weight of the individual animals is determined.
Following intravenous administration, in comparison with the solvent control applications, a vasopressin V2 receptor blocking compound would bring about an increased excretion of urine, which is based essentially on an increased excretion of water (aquaresis).

[3] = biological target: T3, human V1a receptor (Homo sapiens, UniProt P37288); assay: Cellular in vitro assay for verification of prodrug conversion into drug (with/without alkaline phosphatase); type: cell-based; conditions: human V1a CHO cells
T3 construct: expressed in transfected cells; host or cells: CHO K1 (Chinese hamster ovary), also stably transfected with a modified aequorin
Protocol: B-4. Cellular In Vitro Assay for Verification of Prodrug Conversion into Drug
To verify the conversion of prodrugs into the respective drugs, the prodrugs are incubated with and without alkaline phosphatase. Cleavage of the phosphate moiety by alkaline phosphatase converts the prodrug into the underlying respective drug [Coleman J. E., Annu. Rev. Biophys. Biomol. Struct. 1992, 21, 441-483]. As prodrug and underlying respective drug show different IC50 values, the value of the prodrug after alkaline phosphatase treatment resembles the IC50 of the respective drug. The determination of IC50 values of compounds of the invention at the human V1a receptor is carried out using a recombinant cell line. The cell line originally derives from a hamster's ovary epithelial cell (Chinese Hamster Ovary, CHO K1, ATCC: American Type Culture Collection, Manassas, Va. 20108, USA). The test cell line constitutively expresses the human V1a receptor. Cells are also stably transfected with a modified form of the calcium-sensitive photoprotein aequorin which, after reconstitution with the cofactor coelenterazine, emits light upon increase in free calcium concentration [Rizzuto R, Simpson A W, Brini M, Pozzan T, Nature 358, 325-327 (1992); Illarionov B A, Bondar V S, Illarionova V A, Vysotski E S, Gene 153 (2), 273-274 (1995)]. The resulting vasopressin receptor cell reacts to stimulation of the recombinantly expressed V1a receptor by intracellular release of calcium ions, which can be quantified by the resulting luminescence of photoprotein. The bioluminescence of the cell line is detected using a suitable luminometer [Milligan G, Marshall F, Rees S, Trends in Pharmacological Sciences 17, 235-237 (1996)].
On the day before the assay, the cells are seeded in culture medium (DMEM/F12, 2% FCS, 2 mM glutamine, 10 mM HEPES, 5 μg/ml coelenterazine) in 384-well microtiter plates and kept in a cell incubator (96% humidity, 5% v/v CO2, 37C). On the day of the assay, 100 μl of test compounds at a concentration of 100 μM are incubated for 15 minutes with 500 units alkaline phosphatase at 37° C. in tyrode buffer (20 mM HEPES, 130 mM NaCl, 5 mM KCl, 5 mM NaHCO3, 2 mM MgCl2, pH 7,4). After incubation compounds are immediately diluted and placed for 10 minutes at 37° C. on the before seeded V1a cells. For detection of antagonistic activity of the compounds [Arg^8]-vasopressin at EC50 concentration is added and the resulting light signal is measured immediately in a luminometer.

[4] = pre-incubation 15 min with 500 units alkaline phosphatase at 37° C., read-out: IC50 with AP
[5] = without alkaline phosphatase, read-out: IC50 without AP

T1 sequence (P30518 whole entry): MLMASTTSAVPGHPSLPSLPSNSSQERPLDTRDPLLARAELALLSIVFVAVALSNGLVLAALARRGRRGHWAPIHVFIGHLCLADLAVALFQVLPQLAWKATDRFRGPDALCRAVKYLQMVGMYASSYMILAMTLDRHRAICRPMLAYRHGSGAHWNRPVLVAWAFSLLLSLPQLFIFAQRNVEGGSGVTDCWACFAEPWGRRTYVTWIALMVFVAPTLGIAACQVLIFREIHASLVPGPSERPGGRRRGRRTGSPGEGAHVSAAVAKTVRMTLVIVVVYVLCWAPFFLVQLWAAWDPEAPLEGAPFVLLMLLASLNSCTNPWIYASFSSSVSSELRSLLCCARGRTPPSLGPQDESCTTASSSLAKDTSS
T3 sequence (P37288 whole entry): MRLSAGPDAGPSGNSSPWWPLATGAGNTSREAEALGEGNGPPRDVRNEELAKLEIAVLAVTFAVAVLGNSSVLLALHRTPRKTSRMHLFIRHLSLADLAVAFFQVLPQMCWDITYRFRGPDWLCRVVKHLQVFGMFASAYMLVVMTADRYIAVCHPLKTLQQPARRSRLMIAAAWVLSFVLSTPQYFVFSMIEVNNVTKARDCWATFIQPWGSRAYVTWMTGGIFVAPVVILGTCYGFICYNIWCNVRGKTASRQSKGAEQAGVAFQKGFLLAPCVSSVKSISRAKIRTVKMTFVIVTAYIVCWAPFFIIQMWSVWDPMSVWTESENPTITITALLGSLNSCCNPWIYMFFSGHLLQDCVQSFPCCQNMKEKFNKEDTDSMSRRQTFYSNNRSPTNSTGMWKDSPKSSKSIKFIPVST
T2 sequence (Q00788 whole entry): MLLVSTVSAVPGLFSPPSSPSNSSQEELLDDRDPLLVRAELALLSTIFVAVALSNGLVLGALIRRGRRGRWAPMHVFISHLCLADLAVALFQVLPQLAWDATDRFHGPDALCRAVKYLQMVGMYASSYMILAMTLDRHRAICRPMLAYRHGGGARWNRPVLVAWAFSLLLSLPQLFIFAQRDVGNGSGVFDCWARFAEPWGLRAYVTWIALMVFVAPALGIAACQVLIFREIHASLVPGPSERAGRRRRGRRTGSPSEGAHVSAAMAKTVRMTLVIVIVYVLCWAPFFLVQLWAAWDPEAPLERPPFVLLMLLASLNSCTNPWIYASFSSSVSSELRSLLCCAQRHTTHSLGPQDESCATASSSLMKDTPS

Compound `NC(=O)c1nc(Cn2nc(-c3ccc(Cl)cc3)n(C[C@H](OP(=O)(O)O)C(F)(F)F)c2=O)nn1-c1ncccc1C(F)(F)F` [Example 1, (2S)-3-[1-({5-Carbamoyl-1-[3-(trifluoromethyl)pyridin-2-yl]-1H-1,2,4-triazol-3-yl}methyl)-3-(4-chlorophenyl)-5-oxo-1,5-dihydro-4H-1,2,4-triazol-4-yl]-1,1,1-trifluoropropan-2-yl Dihydrogen Phosphate] has a pIC50 [1] of 6.71, a Urinary volume ([2]; dosage 0.3 mg/kg) of 127 % vs. control and a Urinary volume ([2]; dosage 1.0 mg/kg) of 117 % vs. control. The Urinary volume ([2]; dosage 3.0 mg/kg) was 108 % vs. control, the pIC50 [3, 4] was 8.84 and the pIC50 [3, 5] was 7.88.
`NC(=O)c1nc(Cn2nc(-c3ccc(Cl)cc3)n(C[C@H](O)C(F)(F)F)c2=O)nn1-c1ncccc1C(F)(F)F` [Example 4A, 3-({3-(4-Chlorophenyl)-5-oxo-4-[(2S)-3,3,3-trifluoro-2-hydroxypropyl]-4,5-dihydro-1H-1,2,4-triazol-1-yl}methyl)-1-[3-(trifluoromethyl)pyridin-2-yl]-1H-1,2,4-triazole-5-carboxamide] gave a Urinary volume ([2]; dosage 0.3 mg/kg) of 95 % vs. control, a Urinary volume ([2]; dosage 1.0 mg/kg) of 154 % vs. control and a Urinary volume ([2]; dosage 3.0 mg/kg) of 134 % vs. control. For the same compound, the pIC50 [3, 4] was 8.87 and the pIC50 [3, 5] was 8.90.
Work on `NC(=O)c1nc(Cn2nc(-c3ccc(Cl)cc3)n(C[C@H](OP(=O)(O)O)C(F)(F)F)c2=O)nn1-c1ccccc1C(F)(F)F` [Example 10, (2S)-3-[1-({5-Carbamoyl-1-[2-(trifluoromethyl)phenyl]-1H-1,2,4-triazol-3-yl}methyl)-3-(4-chlorophenyl)-5-oxo-1,5-dihydro-4H-1,2,4-triazol-4-yl]-1,1,1-trifluoropropan-2-yl Dihydrogen Phosphate] yielded a pIC50 [1] of 7.33, a pIC50 [3, 4] of 8.89 and a pIC50 [3, 5] of 7.96.
With `NC(=O)c1nc(Cn2nc(-c3ccc(Cl)cc3)n(C[C@H](OP(=O)(O)O)C(F)(F)F)c2=O)nn1-c1ncccc1Cl` [Example 17, (2S)-3-[1-{[5-Carbamoyl-1-(3-chloropyridin-2-yl)-1H-1,2,4-triazol-3-yl]methyl}-3-(4-chloro-phenyl)-5-oxo-1,5-dihydro-4H-1,2,4-triazol-4-yl]-1,1,1-trifluoropropan-2-yl Dihydrogen Phosphate] the pIC50 [1] was 6.89, the pIC50 [3, 4] was 8.99 and the pIC50 [3, 5] was 8.02.
